Experimental data reported in PubChem BioAssay (NCI).
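Results reflect a 48-hour exposure of cells in 96-well plates to compound at five concentrations. GI50 is the concentration that inhibits growth by half. TGI denotes the concentration required for complete inhibition of growth.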

How the values were obtained:
Assay in all cases: inhibition of tumour cell growth, NCI panel, 48 h
MDA-MB-231 breast = test system: MDA-MB-231 breast
T-47D breast = test system: T-47D breast
NCI-H460 lung = test system: NCI-H460 lung
U251 CNS = test system: U251 CNS
EKVX NSCLC = test system: EKVX NSCLC
SNB-19 CNS = test system: SNB-19 CNS
SK-MEL-5 melanoma = test system: SK-MEL-5 melanoma
K-562 leukemia = test system: K-562 leukemia
RXF 393 renal = test system: RXF 393 renal
NCI-H23 lung = test system: NCI-H23 lung
PC-3 prostate = test system: PC-3 prostate
SF-539 CNS = test system: SF-539 CNS
NCI-H522 lung = test system: NCI-H522 lung
CCRF-CEM leukemia = test system: CCRF-CEM leukemia
SW-620 colon = test system: SW-620 colon
TK-10 renal = test system: TK-10 renal
HOP-62 NSCLC = test system: HOP-62 NSCLC
NCI/ADR-RES ovarian = test system: NCI/ADR-RES ovarian
MDA-MB-435 = test system: MDA-MB-435
OVCAR-8 ovarian = test system: OVCAR-8 ovarian
SK-MEL-2 melanoma = test system: SK-MEL-2 melanoma
OVCAR-3 ovarian = test system: OVCAR-3 ovarian
RPMI-8226 leukemia = test system: RPMI-8226 leukemia
SN12C renal = test system: SN12C renal
HCC-2998 colon = test system: HCC-2998 colon
DU-145 prostate = test system: DU-145 prostate
SF-268 CNS = test system: SF-268 CNS
ACHN renal = test system: ACHN renal
SNB-75 CNS = test system: SNB-75 CNS
786-0 renal = test system: 786-0 renal
OVCAR-4 ovarian = test system: OVCAR-4 ovarian
BT-549 breast = test system: BT-549 breast
HCT-116 colon = test system: HCT-116 colon
M14 melanoma = test system: M14 melanoma
IGROV1 ovarian = test system: IGROV1 ovarian
SK-OV-3 ovarian = test system: SK-OV-3 ovarian
HT29 colon = test system: HT29 colon
UACC-257 melanoma = test system: UACC-257 melanoma
HL-60(TB) leukemia = test system: HL-60(TB) leukemia
A549 NSCLC = test system: A549 NSCLC
UO-31 renal = test system: UO-31 renal
LOX IMVI melanoma = test system: LOX IMVI melanoma
SR leukemia = test system: SR leukemia
OVCAR-5 ovarian = test system: OVCAR-5 ovarian
HS 578T breast = test system: HS 578T breast
HOP-92 NSCLC = test system: HOP-92 NSCLC
COLO 205 colon = test system: COLO 205 colon
MOLT-4 leukemia = test system: MOLT-4 leukemia
UACC-62 melanoma = test system: UACC-62 melanoma
CAKI-1 renal = test system: CAKI-1 renal
MCF7 breast = test system: MCF7 breast
SK-MEL-28 melanoma = test system: SK-MEL-28 melanoma
SF-295 CNS = test system: SF-295 CNS
NCI-H226 lung = test system: NCI-H226 lung
KM12 colon = test system: KM12 colon
A498 renal = test system: A498 renal
HCT-15 colon = test system: HCT-15 colon

Compound: C=C(C)C(=O)Oc1ccc(N=Nc2ccc(C)cc2)ccc1=O
- GI50 (MDA-MB-231 breast): 4.84 µM
- TGI (MDA-MB-231 breast): 22 µM
- GI50 (T-47D breast): 3.14 µM
- TGI (T-47D breast): 14.7 µM
- GI50 (NCI-H460 lung): 2.85 µM
- TGI (NCI-H460 lung): 10.2 µM
- GI50 (U251 CNS): 3.11 µM
- TGI (U251 CNS): 12.7 µM
- GI50 (EKVX NSCLC): 2.32 µM
- TGI (EKVX NSCLC): 8.76 µM
- GI50 (SNB-19 CNS): 3.68 µM
- TGI (SNB-19 CNS): 21.8 µM
- GI50 (SK-MEL-5 melanoma): 4 µM
- TGI (SK-MEL-5 melanoma): 15.2 µM
- GI50 (K-562 leukemia): 3.36 µM
- TGI (K-562 leukemia): 13.6 µM
- GI50 (RXF 393 renal): 3.93 µM
- TGI (RXF 393 renal): 14.8 µM
- GI50 (NCI-H23 lung): 4.52 µM
- TGI (NCI-H23 lung): 17.8 µM
- GI50 (PC-3 prostate): 5.54 µM
- TGI (PC-3 prostate): 24.4 µM
- GI50 (SF-539 CNS): 5.17 µM
- TGI (SF-539 CNS): 18.1 µM
- GI50 (NCI-H522 lung): 4.95 µM
- TGI (NCI-H522 lung): 18.1 µM
- GI50 (CCRF-CEM leukemia): 2.24 µM
- TGI (CCRF-CEM leukemia): 9.36 µM
- GI50 (SW-620 colon): 3.16 µM
- TGI (SW-620 colon): 13.4 µM
- GI50 (TK-10 renal): 10.7 µM
- TGI (TK-10 renal): 82.4 µM
- GI50 (HOP-62 NSCLC): 3.78 µM
- TGI (HOP-62 NSCLC): 14.9 µM
- GI50 (NCI/ADR-RES ovarian): 3.14 µM
- TGI (NCI/ADR-RES ovarian): 11.4 µM
- GI50 (MDA-MB-435): 2.77 µM
- TGI (MDA-MB-435): 11.2 µM
- GI50 (OVCAR-8 ovarian): 3.15 µM
- TGI (OVCAR-8 ovarian): 10.9 µM
- GI50 (SK-MEL-2 melanoma): 8.31 µM
- TGI (SK-MEL-2 melanoma): 28.6 µM
- GI50 (OVCAR-3 ovarian): 2.09 µM
- TGI (OVCAR-3 ovarian): 8.13 µM
- GI50 (RPMI-8226 leukemia): 3.73 µM
- TGI (RPMI-8226 leukemia): 17.8 µM
- GI50 (SN12C renal): 3.89 µM
- TGI (SN12C renal): 18.5 µM
- GI50 (HCC-2998 colon): 3.74 µM
- TGI (HCC-2998 colon): 14 µM
- GI50 (DU-145 prostate): 4.36 µM
- TGI (DU-145 prostate): 15.8 µM
- GI50 (SF-268 CNS): 2.62 µM
- TGI (SF-268 CNS): 11.2 µM
- GI50 (ACHN renal): 3.96 µM
- TGI (ACHN renal): 15.8 µM
- GI50 (SNB-75 CNS): 2.66 µM
- TGI (SNB-75 CNS): 10.3 µM
- GI50 (786-0 renal): 4.96 µM
- TGI (786-0 renal): 17.8 µM
- GI50 (OVCAR-4 ovarian): 3.63 µM
- TGI (OVCAR-4 ovarian): 14.4 µM
- GI50 (BT-549 breast): 6.63 µM
- TGI (BT-549 breast): 21.3 µM
- GI50 (HCT-116 colon): 2.98 µM
- TGI (HCT-116 colon): 10.5 µM
- GI50 (M14 melanoma): 3.21 µM
- TGI (M14 melanoma): 12.7 µM
- GI50 (IGROV1 ovarian): 2.54 µM
- TGI (IGROV1 ovarian): 9.15 µM
- GI50 (SK-OV-3 ovarian): 4.72 µM
- TGI (SK-OV-3 ovarian): 27.7 µM
- GI50 (HT29 colon): 4.28 µM
- TGI (HT29 colon): 15.1 µM
- GI50 (UACC-257 melanoma): 2.99 µM
- TGI (UACC-257 melanoma): 13 µM
- GI50 (HL-60(TB) leukemia): 2.39 µM
- TGI (HL-60(TB) leukemia): 7.04 µM
- GI50 (A549 NSCLC): 3.81 µM
- TGI (A549 NSCLC): 18.3 µM
- GI50 (UO-31 renal): 2.55 µM
- TGI (UO-31 renal): 8.38 µM
- GI50 (LOX IMVI melanoma): 2.72 µM
- TGI (LOX IMVI melanoma): 11.4 µM
- GI50 (SR leukemia): 2.47 µM
- TGI (SR leukemia): 8.28 µM
- GI50 (OVCAR-5 ovarian): 8.26 µM
- TGI (OVCAR-5 ovarian): 21.8 µM
- GI50 (HS 578T breast): 4.33 µM
- TGI (HS 578T breast): 24.3 µM
- GI50 (HOP-92 NSCLC): 3.64 µM
- TGI (HOP-92 NSCLC): 16.1 µM
- GI50 (COLO 205 colon): 3.58 µM
- TGI (COLO 205 colon): 14.6 µM
- GI50 (MOLT-4 leukemia): 2.57 µM
- TGI (MOLT-4 leukemia): 8.18 µM
- GI50 (UACC-62 melanoma): 1.95 µM
- TGI (UACC-62 melanoma): 4.42 µM
- GI50 (CAKI-1 renal): 2.26 µM
- TGI (CAKI-1 renal): 5.6 µM
- GI50 (MCF7 breast): 3.66 µM
- TGI (MCF7 breast): 14.7 µM
- GI50 (SK-MEL-28 melanoma): 3.39 µM
- TGI (SK-MEL-28 melanoma): 11.7 µM
- GI50 (SF-295 CNS): 1.66 µM
- TGI (SF-295 CNS): 4.66 µM
- GI50 (NCI-H226 lung): 3.57 µM
- TGI (NCI-H226 lung): 18.6 µM
- GI50 (KM12 colon): 3.51 µM
- TGI (KM12 colon): 13.5 µM
- GI50 (A498 renal): 3.72 µM
- TGI (A498 renal): 14.6 µM
- GI50 (HCT-15 colon): 3.55 µM
- TGI (HCT-15 colon): 18.5 µM
